{
  "source": "patent US20260242390A1",
  "about": "“TOTAL SYNTHESES OF PORTIMINE A AND ANALOGUES THEREOF AS SMALL MOLECULE MODULATORS OF NMD3” (priority 2023, published 2026)",
  "key": {"RD": {"system": "RD", "test": "Broad cell line profiling, RD", "assay_type": "cell-based", "settings": "Human Rhabdomyosarcoma, read-out: PA IC50", "from_the_text": "(§1) • A panel of human and mouse cancer cell types used to assess the breadth of PA activity, including multiple therapy resistant metastatic mesenchymal tumor cell lines and primary glioblastoma patient-derived metastatic stem/tumor initiating cell populations."}, "HeLa": {"system": "HeLa", "test": "Broad cell line profiling, HeLa", "assay_type": "cell-based", "settings": "Homo sapiens, Cervical Adenocarcinoma, read-out: PA IC50", "from_the_text": "as §1"}, "MCF-7": {"system": "MCF-7", "test": "Broad cell line profiling, MCF-7", "assay_type": "cell-based", "settings": "Homo sapiens, MCF7; MCF-7, Breast Adenocarcinoma; read-out: PA IC50", "from_the_text": "as §1"}, "MD-MBA-231": {"system": "MD-MBA-231", "test": "Broad cell line profiling, MD-MBA-231", "assay_type": "cell-based", "settings": "Homo sapiens; MD-MBA-231, TNBC Breast Adenocarcinoma; read-out: PA IC50", "from_the_text": "as §1"}, "786-O": {"system": "786-O", "test": "Broad cell line profiling, 786-O", "assay_type": "cell-based", "settings": "Homo sapiens, 786-0, Renal Adenocarcinoma, read-out: PA IC50", "from_the_text": "as §1"}, "MC38": {"system": "MC38", "test": "Broad cell line profiling, MC38", "assay_type": "cell-based", "settings": "MC-38; MC38, Mouse Colon Carcinoma; read-out: PA IC50", "from_the_text": "as §1"}, "B16-F10": {"system": "B16-F10", "test": "Broad cell line profiling, B16-F10", "assay_type": "cell-based", "settings": "B16-F10, Mouse Melanoma; read-out: PA IC50", "from_the_text": "as §1"}, "XPO1": {"system": "XPO1", "test": "XPO1 protein level in Jurkat cells", "assay_type": "cell-based, human", "experimental": "(§2) FIG. 7. Portimine A targets NMD3 and prevents polysome formation. […] (A) Immunoblot showing reduced NMD3 levels in shNMD3 Jurkat and HeLa cells. […] Jurkat cells were treated with 12.5 nM of PA for 12 or 24 hours. Jurkat and HeLa cells were treated with 5 nM or 150 nM of PA for 24 hours. Data represents mean±SD of biologically replicated experiments (n=3). […] Cell lysates were fractionated by sucrose gradient (5-50%) and each fraction were analyzed by western blot. eIF6 levels increase in 60S subunit fraction and decrease in ribosome-free fractions after PA treatment. RPS6, a 40S and polysome subunits marker, is decreased in polysome fractions after PA treatment. Results are representative of three independent experiments. […] Relative protein levels in each fraction were normalized to the peak fraction of the indicated protein from the DMSO cells and plotted. Data represents mean±SD of biologically replicated experiments (n=3). Statistical analysis was performed using multiple unpaired Student t-test. * p≤0.05; ** p≤0.01; *** p≤0.005; **** p≤0.0001. Treatment condition: Jurkat (5 M per condition); Incubate cells (1 M/mL) with inhibitors for 6 hr, 12 hr and 24 hr, respectively.\n(§3) • 1) Portimine A and its functional analogs show stereo-selective acute toxicity in cancer cells (FIG. 1). […] (B) Structure of portimine related analogs: phenyl-portimine A (Ph-PA, 36) and epi-portimine A (ePA, 38). […]"}, "Jurkat cells": {"system": "Jurkat cells", "test": "Polysome profiling", "assay_type": "cell-based, human", "settings": "6 hours at 50 nM", "experimental": "as §2, §3"}},
  "data": [
    {"smiles": "C=CC1=C[C@@H]2[C@@H]3O[C@]4(CC[C@H](O4)C(C)C[C@@H](O)C3=O)CC(O)C3=NCC[C@@]32CC1", "note": "(stereo partly drawn) [PA, portimine A]", "values": [
      {"measurement": "IC50", "setting": "RD", "value": 560, "unit": "pM"},
      {"measurement": "IC50", "setting": "HeLa", "value": 1600, "unit": "pM"},
      {"measurement": "IC50", "setting": "MCF-7", "value": 770, "unit": "pM"},
      {"measurement": "IC50", "setting": "MD-MBA-231", "value": 680, "unit": "pM"},
      {"measurement": "IC50", "setting": "786-O", "value": 1800, "unit": "pM"},
      {"measurement": "IC50", "setting": "MC38", "value": 550, "unit": "pM"},
      {"measurement": "IC50", "setting": "B16-F10", "value": 750, "unit": "pM"},
      {"measurement": "XPO1 levels", "setting": "XPO1", "value": "unaffected"},
      {"measurement": "polysome profiling, protein translation", "setting": "Jurkat cells", "value": "protein translation inhibition"}
    ]}
  ]
}
